Consider four molecules from patent publication US5340920A, “Physiologically active porcine peptide (CNP-53)” (Matsuo; Hisayuki, priority 1990, dated 1994).

One test concerns rats. Conditions: administered to rats; Japanese Patent Application No. 105047/1990; cited from earlier work.
The next test concerns chick rectum. Description: Chick rectum relaxant activity (method of Currie et al.). To be noted: assay system of Currie et al.; compared with CNP-22. The procedure: The chick rectum relaxant activity of CNP-53 was measured in accordance with the method of Currie et al. (Currie et al., […]).
For test [1], the system named is anti-CNP-22 antiserum (antibody #171-4). Nature of the test: RIA system using anti-CNP-22 antiserum #171-4 and I125 labelled [Tyr0] CNP-22. It counts as binding, rabbit. To be noted: for cross-reactivity of antibody #171-4: RIA, CNP-22 as standard. The procedure:
Six milligrams of chemically synthesized CNP-22 and 15 mg of bovine thyroglobulin (product of Sigma Co.) were dissolved in 2 ml of 0.1M phosphate buffer (pH 7.4). To the solution, 100 μl of 5% glutaraldehyde was added and the mixture was agitated at 0° C. for 20 min to have CNP-22 bound to the thyroglobulin. Then, the solution was dialyzed five times against water (500 ml) and twice against 500 ml of 50 mM phosphate buffer (pH 7.4) containing 80 mM NaCl, whereby excess salts and reagents were removed from the reaction solution. Subsequently, 50 mM phosphate buffer containing 80 mM NaCl was added to the reaction solution to make a total volume of 12 ml. Thereafter, an equal volume of Freund's complete adjuvant was added to form an emulsion. A rabbit (New Zealand White) was repeatedly immunized with the emulsion at 20-day intervals so as to prepare an anti-CNP-22 antiserum. The thus prepared antiserum was named "#171-4".
In the first step, [Tyr°] CNP-22 [a peptide having a tyrosine residue (Tyr) added to the N-terminus of CNP-22] was chemically synthesized. Then, I^125 was introduced into the N-terminal Tyr residue by the method of Miyata et al. (Miyata, A. et al., Biochem. Biophys. Res. Commun., 129, 248-255, 1985) and the I^125 labelled monoiodo(Tyr°] CNP-22 was separated and isolated by reverse-phase HPLC.
In the next step, an RIA system was constructed by the following method using the thus I125 labelled [Tyr°] CNP-22 and the antibody (#171-4) prepared in Example 1-A.
As a buffer for the RIA system, 50 mM phosphate buffer (pH 7.4) containing 80 mM NaCl, 0.1% Triton X-100, 25 mM EDTA, 0.05% NaN3, 3.1% dextran T-40 and 0.25% BSA (as treated with N-ethylmaleimide) was used. A standard CNP-22 solution or assay sample (100 μl) and the antibody #171-4 prepared in Example 1-A (100 μl of a 60,000-fold dilution) were added to the buffer and the mixture was subjected to reaction at 4° C. for 24 h. […] Thereafter, polyethylene glycol was added and the radioactivity of the resulting precipitate was measured with a gamma-counter (ARC-600 of Aloka Co.).

Test [2] can be described thus: Diuretic and natriuretic actions of the purified peptide. The format is in vivo. To be noted: no method described.

Regarding “CNP-22: C-type natriuretic peptide of 22 amino acid residues from porcine brain, single S-S bond, no C-terminal tail (GLSKGCFGLKLDRIGSMSGLGC)”, the “natriuretic and hypotensive actions” value with rats was “natriuretic and hypotensive actions”.
“CNP-53: novel porcine brain peptide of 53 amino acid residues containing CNP-22 at the C-terminus, intramolecular S-S bond Cys37-Cys53 (DLRVDTKSRAAWARLLHEHPNARKYKGGNKKGLSKGCFGLKLDRIGSMSGLGC)”: in the test on chick rectum, the “chick rectum relaxant activity” value is recorded as “comparable chick rectum relaxant activity to CNP-22”. Also, the “immunoreactivity per molecule with the anti-CNP-22 antiserum” value in test [1] (RIA of Example 1, assuming 53 residues containing CNP-22 at the C-terminus, compared with CNP-22) is recorded as “comparable to that of CNP-22”. Besides, in test [2], the “diuretic and natriuretic actions” value was “diuretic and natriuretic actions”.
Regarding “α-ANP: α-type atrial natriuretic peptide, single-stranded peptide of 28 amino acids with a single S-S bond [reference compound]”, in test [1], the “cross-reactivity of antibody #171-4” value was found to be 0.015%.

B1: pBNP-26: porcine brain natriuretic peptide of 26 amino acid residues having a single S-S bond (peptide)
peptide: HPLGGAGLASELPGIQELLDRLRDRVSELQAERTDLEPLRQDRGLTEAWEAREAAPTGVLGPRSSIFQVLRGIRSPKTMRDSGCFGRRLDRIGSLSGLGCNVLRRY
Turning to B1, in test [1], the “cross-reactivity of antibody #171-4” value is reported as 0.46%.
